Starred links: 1 amine or outer side, 2 acyl side, 3 side chain; linkers in the order of their positions; H or OH if unused. Positions of bridges follow the written chain, without caps; N, C: chain ends. Non-standard residues stand in square brackets, D forms with d. Residues, ends and D or L forms follow the SMILES beside them. *: point of attachment. hPhe(3-Cl-4-CF3) = N[C@@H](CCc1ccc(C(F)(F)F)c(Cl)c1)C(=O)O; hPhe(3-OMe-4-CF3) = COc1cc(CC[C@H](N)C(=O)O)ccc1C(F)(F)F; X67 = O=C([C@H](CCc1cc(F)c(F)cc1F)N[*:1])[*:2]; NMePhe(4-Cl) = CN[C@@H](Cc1ccc(Cl)cc1)C(=O)O; NMePhe(4-Me) = CN[C@@H](Cc1ccc(C)cc1)C(=O)O; NMedβ3hAla = C[C@H](CC(=O)[*:2])N(C)[*:1]; NMeGly(cPent) = CN[C@H](C(=O)O)C1CCCC1; Phe(3-I) = N[C@@H](Cc1cccc(I)c1)C(=O)O; X70 = CC(C)(O)COCCN(CC(=O)[*:2])[*:1]; X84 = O=C(CN(CCc1ccncc1)[*:1])[*:2]; NMeCha = CN[C@@H](CC1CCCCC1)C(=O)O; NMeChg = CN[C@H](C(=O)O)C1CCCCC1; NMeF = CN[C@@H](Cc1ccccc1)C(=O)O; NMeI = CC[C@H](C)[C@H](NC)C(=O)O; NMeE = CN[C@@H](CCC(=O)O)C(=O)O; NMeD = CN[C@@H](CC(=O)O)C(=O)O; Benzyl(4-Cl) = Clc1ccc(C*)cc1; NMeL = CN[C@@H](CC(C)C)C(=O)O; NMeV = CN[C@H](C(=O)O)C(C)C; d(β3hA) = C[C@@H](N)CC(=O)O; NMeS = CN[C@@H](CO)C(=O)O; Morpholide = C1CN(*)CCO1; NMeA = CN[C@@H](C)C(=O)O; NMeAib = CNC(C)(C)C(=O)O; Nle = CCCC[C@H](N)C(=O)O; Piperidide = C1CCN(*)CC1; dNMeA = CN[C@H](C)C(=O)O; Ac5c = NC1(C(=O)O)CCCC1; Aze = O=C(O)[C@@H]1CCN1; X76 = Clc1cccc(C*)c1; X27 = Clc1ccccc1C*; NEtG = CCNCC(=O)O; Sar = CNCC(=O)O; Propyl = CCC*
Molecular target: T1, Kras and SOS1 (biotin-tagged human Kras loaded with GDP, His-tagged human SOS1) (Homo sapiens, UniProt P01116, G12D)
T1 construct: made in house; host or cells: E. coli (stated for Kras only)
Experiment: Protein-protein interaction inhibition between Kras and SOS1 (KrasGl2D-SOS PPI) using AlphaScreen
Assay type: binding
Settings: AlphaScreen; biotin-tagged human Kras loaded with GDP, His-tagged human SOS1; read-out: KRAS G12D-SOS PPI IC50
How it was run: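 AlphaScreen format: Ni donor beads capture His-SOS1, streptavidin acceptor beads capture biotinylated Kras (E. coli-expressed, GDP-loaded post-purification). Excite 680 nm, read 520-620 nm.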

T1 sequence (P01116 1-188 isoform P01116-2 G12D): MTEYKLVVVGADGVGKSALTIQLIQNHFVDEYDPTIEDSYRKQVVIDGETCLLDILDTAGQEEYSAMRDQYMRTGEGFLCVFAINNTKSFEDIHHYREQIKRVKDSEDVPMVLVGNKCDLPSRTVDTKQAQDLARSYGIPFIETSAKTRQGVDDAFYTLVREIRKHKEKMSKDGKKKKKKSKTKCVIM

SMILES | IC50
CC[C@H](C)[C@@H]1NC(=O)[C@H](C)N(C)C(=O)C[C@@H](C)NC(=O)[C@H](C(C)C)N(C)C(=O)C2(CCCC2)NC(=O)[C@@H]2CCCN2C(=O)[C@H](CCc2ccc(C(F)(F)F)c(Cl)c2)NC(=O)[C@@H](C)N(C)C(=O)[C@H](CC2CCCCC2)N(C)C(=O)[C@@H]2CCCN2C(=O)CN(CC)C1=O [Compound 2014] (cyclo([Ac5c][NMeV][d(β3hA)][NMeA]I[NEtG]P[NMeCha][dNMeA][hPhe(3-Cl-4-CF3)]P)) | 0.34 µM
CC[C@H](C)[C@@H]1NC(=O)[C@H](C)N(C)C(=O)C[C@@H](C)NC(=O)[C@H](C(C)C)N(C)C(=O)C2(CCCC2)NC(=O)[C@@H]2CCCN2C(=O)[C@H](CCc2ccc(C(F)(F)F)c(Cl)c2)NC(=O)[C@@H](C)N(C)C(=O)[C@H](CC2CCCCC2)N(C)C(=O)[C@@H]2CCN2C(=O)[C@H](CC2CCCCC2)N(C)C1=O [Compound 2015] (cyclo([Ac5c][NMeV][d(β3hA)][NMeA]I[NMeCha][Aze][NMeCha][dNMeA][hPhe(3-Cl-4-CF3)]P)) | 0.26 µM
CC[C@H](C)[C@@H]1NC(=O)[C@H](C)N(C)C(=O)C[C@@H](C)NC(=O)[C@H](C(C)C)N(C)C(=O)C2(CCCC2)NC(=O)[C@@H]2CCCN2C(=O)[C@H](CCc2ccc(C(F)(F)F)c(Cl)c2)NC(=O)[C@@H](C)N(C)C(=O)[C@H](CC2CCCCC2)N(C)C(=O)[C@@H]2CCN2C(=O)[C@H](Cc2ccccc2)N(C)C1=O [Compound 2019] (cyclo([Ac5c][NMeV][d(β3hA)][NMeA]I[NMeF][Aze][NMeCha][dNMeA][hPhe(3-Cl-4-CF3)]P)) | 0.11 µM
CC[C@H](C)[C@@H]1NC(=O)[C@H](CC(C)C)N(C)C(=O)C[C@@H](C(=O)N(C)C)N(C)C(=O)[C@H](C2CCCC2)N(C)C(=O)C2(CCCC2)NC(=O)CN(CCOCC(C)(C)O)C(=O)[C@H](CCc2ccc(C(F)(F)F)c(Cl)c2)NC(=O)CN(C)C(=O)[C@H](CC2CCCCC2)N(C)C(=O)[C@@H]2CCN2C(=O)[C@H](C)N(C)C1=O [Compound 2023] ([NMeL]I[NMeA][Aze][NMeCha][Sar][hPhe(3-Cl-4-CF3)][X70][Ac5c][NMeGly(cPent)][NMeD]-NMe2; lactam N-11) | 0.0017 µM
CCCOC[C@H]1C(=O)N(C)CC(=O)N[C@@H](CCc2ccc(C(F)(F)F)c(Cl)c2)C(=O)N(CCOCC(C)(C)O)CC(=O)NC2(CCCC2)C(=O)N(C)[C@@H]([C@@H](C)CC)C(=O)N(C)[C@H](C)CC(=O)N(C)[C@@H](CC(C)C)C(=O)N[C@@H]([C@@H](C)CC)C(=O)N(C)[C@@H](C)C(=O)N2CC[C@H]2C(=O)N1C [Compound 2027] (cyclo([Ac5c][NMeI][NMedβ3hAla][NMeL]I[NMeA][Aze][NMeS](Propyl)[Sar][hPhe(3-Cl-4-CF3)][X70])) | 0.11 µM
CC[C@H](C)[C@@H]1NC(=O)[C@H](CC(C)C)N(C)C(=O)C[C@@H](C(=O)N(C)C)N(C)C(=O)[C@H]([C@@H](C)CC)N(C)C(=O)C2(CCCC2)NC(=O)CN(CCOCC(C)(C)O)C(=O)[C@H](CCc2ccc(C(F)(F)F)c(Cl)c2)NC(=O)CN(C)C(=O)[C@H](CC2CCCCC2)N(C)C(=O)[C@@H]2CCN2C(=O)[C@H](C)N(C)C1=O [Compound 2028] ([NMeL]I[NMeA][Aze][NMeCha][Sar][hPhe(3-Cl-4-CF3)][X70][Ac5c][NMeI][NMeD]-NMe2; lactam N-11) | 0.011 µM
CC[C@H](C)[C@@H]1NC(=O)[C@H](CC(C)C)N(C)C(=O)C[C@@H](C(=O)N2CCCCC2)N(C)C(=O)[C@H](C2CCCCC2)N(C)C(=O)C2(CCCC2)NC(=O)CN(CCc2ccncc2)C(=O)[C@H](CCc2ccc(C(F)(F)F)c(Cl)c2)NC(=O)CN(C)C(=O)[C@H](CC2CCCCC2)N(C)C(=O)CN(C)C(=O)CN(C)C1=O [Compound 2029] ([NMeL]I[Sar][Sar][NMeCha][Sar][hPhe(3-Cl-4-CF3)][X84][Ac5c][NMeChg][NMeD]-Piperidide; lactam N-11) | 0.00083 µM
CC[C@H](C)[C@@H]1NC(=O)[C@H](CC(C)C)N(C)C(=O)C[C@@H](C(=O)N(C)C)N(C)C(=O)[C@H]([C@@H](C)CC)N(C)C(=O)C2(CCCC2)NC(=O)CN(CCOCC(C)(C)O)C(=O)[C@H](CCc2ccc(C(F)(F)F)c(Cl)c2)NC(=O)CN(C)C(=O)[C@H](Cc2ccc(C)cc2)N(C)C(=O)[C@@H]2CCN2C(=O)[C@H](C)N(C)C1=O [Compound 2034] ([NMeL]I[NMeA][Aze][NMePhe(4-Me)][Sar][hPhe(3-Cl-4-CF3)][X70][Ac5c][NMeI][NMeD]-NMe2; lactam N-11) | 0.002 µM
CC[C@H](C)[C@@H]1NC(=O)[C@H](C)N(C)C(=O)C[C@@H](C(=O)N2CCCCC2)N(C)C(=O)[C@H](C2CCCCC2)N(C)C(=O)C2(CCCC2)NC(=O)[C@@H]2CCCN2C(=O)[C@H](COc2ccc(Cl)cc2)NC(=O)CN(C)C(=O)[C@H](CC2CCCCC2)N(C)C(=O)CN(C)C(=O)CN(C)C1=O [Compound 2042, (3S,9S,18S,21S,25S,28S,34S)-3-[(4-chlorophenoxy)methyl]-28-cyclohexyl-9-(cyclohexylmethyl)-7,10,13,16,21,22,26,29-octamethyl-18-[(1S)-1-methylpropyl]-25-(piperidine-1-carbonyl)spiro[1,4,7,10,13,16,19,22,26,29,32-undecazabicyclo[32.3.0]heptatriacontane-31,1′-cyclopentane]-2,5,8,11,14,17,20,23,27,30,33-undecone] | 0.07 µM
CC[C@H](C)[C@@H]1NC(=O)[C@H](C)N(C)C(=O)C[C@@H](C(=O)N2CCCCC2)N(C)C(=O)[C@H](C2CCCCC2)N(C)C(=O)C2(CCCC2)NC(=O)[C@@H]2CCCN2C(=O)[C@H](COCc2ccccc2Cl)NC(=O)CN(C)C(=O)[C@H](CC2CCCCC2)N(C)C(=O)CN(C)C(=O)CN(C)C1=O [Compound 2043] ([NMeA]I[Sar][Sar][NMeCha][Sar]S(X27)P[Ac5c][NMeChg][NMeD]-Piperidide; lactam N-11) | 0.012 µM
CC[C@H](C)[C@@H]1NC(=O)[C@H](C)N(C)C(=O)C[C@@H](C(=O)N2CCCCC2)N(C)C(=O)[C@H](C2CCCCC2)N(C)C(=O)C2(CCCC2)NC(=O)[C@@H]2CCCN2C(=O)[C@H](COCc2ccc(Cl)cc2)NC(=O)CN(C)C(=O)[C@H](CC2CCCCC2)N(C)C(=O)CN(C)C(=O)CN(C)C1=O [Compound 2044] ([NMeA]I[Sar][Sar][NMeCha][Sar]S(Benzyl(4-Cl))P[Ac5c][NMeChg][NMeD]-Piperidide; lactam N-11) | 0.0079 µM
CC[C@H](C)[C@@H]1NC(=O)[C@H](C)N(C)C(=O)C[C@@H](C(=O)N2CCCCC2)N(C)C(=O)[C@H](C2CCCCC2)N(C)C(=O)C2(CCCC2)NC(=O)[C@@H]2CCCN2C(=O)[C@H](COCc2cccc(Cl)c2)NC(=O)CN(C)C(=O)[C@H](CC2CCCCC2)N(C)C(=O)CN(C)C(=O)CN(C)C1=O [Compound 2045] ([NMeA]I[Sar][Sar][NMeCha][Sar]S(X76)P[Ac5c][NMeChg][NMeD]-Piperidide; lactam N-11) | 0.015 µM
CC[C@H](C)[C@@H]1NC(=O)[C@H](CC(C)C)N(C)C(=O)C[C@@H](C(=O)N2CCCCC2)N(C)C(=O)[C@H](C2CCCC2)N(C)C(=O)C2(CCCC2)NC(=O)[C@@H]2CCCN2C(=O)[C@H](CCc2ccc(C(F)(F)F)c(OC)c2)NC(=O)CN(C)C(=O)[C@H](CC2CCCCC2)N(C)C(=O)[C@@H]2CCN2C(=O)[C@H](C)N(C)C1=O [Compound 2080] ([NMeL]I[NMeA][Aze][NMeCha][Sar][hPhe(3-OMe-4-CF3)]P[Ac5c][NMeGly(cPent)][NMeD]-Piperidide; lactam N-11) | 0.00033 µM
CC[C@H](C)[C@@H]1NC(=O)[C@H](C)N(C)C(=O)C[C@@H](C)NC(=O)[C@H](CC(C)C)N(C)C(=O)[C@H](Cc2ccccc2)N(C)C(=O)[C@H](CC(C)C)NC(=O)[C@H](CCc2cc(F)c(F)cc2F)NC(=O)CN(C)C(=O)[C@H](Cc2ccc(Cl)cc2)N(C)C(=O)CN(C)C(=O)CN(C)C1=O [Compound 2087] (cyclo(I[Sar][Sar][NMePhe(4-Cl)][Sar][X67]L[NMeF][NMeL][d(β3hA)][NMeA])) | 0.13 µM
CCCC[C@@H]1NC(=O)[C@H](Cc2cccc(I)c2)NC(=O)CN(C)C(=O)[C@H](Cc2ccc(C)cc2)N(C)C(=O)CN(C)C(=O)CN(C)C(=O)[C@H]([C@@H](C)CC)NC(=O)[C@H](CC(C)C)N(C)C(=O)C[C@@H](C(=O)N2CCCCC2)N(C)C(=O)[C@H](CC(C)C)NC(=O)[C@H](CCC(=O)N(C)C)N(C)C1=O [Compound 2100, 3-[(3S,6S,9S,12S,18S,27S,30S,34S)-9-butyl-12-[(3-iodophenyl)methyl]-3,30-diisobutyl-1,7,16,19,22,25,31-heptamethyl-27-[(1S)-1-methylpropyl]-2,5,8,11,14,17,20,23,26,29,32-undecaoxo-34-(piperidine-1-carbonyl)-18-(p-tolylmethyl)-1,4,7,10,13,16,19,22,25,28,31-undecazacyclotetratriacont-6-yl]-N,N-dimethyl-propanamide] ([NMeL]I[Sar][Sar][NMePhe(4-Me)][Sar][Phe(3-I)][Nle][NMeE](NMe2)L[NMeD]-Piperidide; lactam N-11) | 0.015 µM
CC[C@H](C)[C@@H]1NC(=O)[C@H](CC(C)C)N(C)C(=O)C[C@@H](C(=O)N2CCOCC2)N(C)C(=O)[C@H](C2CCCC2)N(C)C(=O)C2(CCCC2)NC(=O)[C@H](CCC(=O)NC)N(C)C(=O)[C@H](CCc2ccc(C(F)(F)F)c(Cl)c2)NC(=O)CN(C)C(=O)[C@H](CC2CCCCC2)N(C)C(=O)[C@@H]2CCN2C(=O)[C@H](C)N(C)C1=O [Compound 2111] ([NMeL]I[NMeA][Aze][NMeCha][Sar][hPhe(3-Cl-4-CF3)][NMeE](NHMe)[Ac5c][NMeGly(cPent)][NMeD]-Morpholide; lactam N-11) | 0.0082 µM
CC[C@H](C)[C@@H]1NC(=O)[C@H](C)N(C)C(=O)C[C@@H](C)N(C)C(=O)[C@H]([C@@H](C)CC)N(C)C(=O)C(C)(C)N(C)C(=O)[C@@H]2CCCN2C(=O)[C@H](CCc2ccc(C(F)(F)F)c(Cl)c2)NC(=O)CN(C)C(=O)[C@H](CC2CCCCC2)N(C)C(=O)[C@@H]2CCN2C(=O)[C@H](C)N(C)C1=O [Compound 2153] (cyclo([Aze][NMeCha][Sar][hPhe(3-Cl-4-CF3)]P[NMeAib][NMeI][NMedβ3hAla][NMeA]I[NMeA])) | 0.0069 µM
